Legend:
STEME = assay: Post-emergence herbicidal action against STEME; format: in vivo, Stellaria media; conditions: application rate 80 g/ha, rated visually about 3 weeks after treatment
How it was run: (§1)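 Post-emergence spray, one-leaf stage; sandy loam, greenhouse; WP/EC in water + 0.5% additive, 600 l/ha; visual % damage vs untreated at ~3 wk (100% = dead).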

AVEFA = assay: Post-emergence herbicidal action against AVEFA; format: in vivo, Avena fatua; conditions: application rate 80 g/ha, rated visually after about 3 weeks
How it was run: as §1

ECHCG = assay: Post-emergence herbicidal action against ECHCG; format: in vivo, Echinochloa crus-galli; conditions: application rate 80 g/ha, rated visually after about 3 weeks
How it was run: as §1

MATIN = assay: Post-emergence herbicidal action against MATIN; format: in vivo, Matricaria inodora; conditions: application rate 80 g/ha, rated visually about 3 weeks after treatment
How it was run: as §1

SETVI = assay: Post-emergence herbicidal action against SETVI; format: in vivo, Setaria viridis; conditions: application rate 80 g/ha, rated visually after about 3 weeks
How it was run: as §1

LOLRI = assay: Post-emergence herbicidal action against LOLRI; format: in vivo, Lolium rigidum; conditions: application rate 80 g/ha, rated visually after about 3 weeks
How it was run: as §1

PHBPU = assay: Post-emergence herbicidal action against PHBPU; format: in vivo, Pharbitis purpurea; conditions: application rate 80 g/ha, rated visually about 3 weeks after treatment
How it was run: as §1

HORMU = assay: Post-emergence herbicidal action against HORMU; format: in vivo, Hordeum murinum; conditions: application rate 80 g/ha
How it was run: as §1

ALOMY = assay: Post-emergence herbicidal action against ALOMY; format: in vivo, Alopecurus myosuroides; conditions: application rate 80 g/ha, rated visually after about 3 weeks
How it was run: as §1

VIOTR = assay: Post-emergence herbicidal action against VIOTR; format: in vivo, Viola tricolor; conditions: application rate 80 g/ha, rated visually about 3 weeks after treatment
How it was run: as §1

AMARE = assay: Post-emergence herbicidal action against AMARE; format: in vivo, Amaranthus retroflexus; conditions: application rate 80 g/ha, rated visually about 3 weeks after treatment
How it was run: as §1

POLCO = assay: Post-emergence herbicidal action against POLCO; format: in vivo, Polygonum convolvulus; conditions: application rate 80 g/ha, rated visually about 3 weeks after treatment
How it was run: as §1

VERPE = assay: Post-emergence herbicidal action against VERPE; format: in vivo, Veronica persica; conditions: application rate 80 g/ha
How it was run: as §1

ABUTH = assay: Post-emergence herbicidal action against ABUTH; format: in vivo, Abutilon theophrasti; conditions: application rate 80 g/ha, rated visually about 3 weeks after treatment
How it was run: as §1

## COC(=O)C(NC(=O)C1C=CC(NC(=O)C2(C)CC(c3cc(F)cc(F)c3)=NO2)C1)C(C)C (mixture of isomers) [II-11]
STEME
  Herbicidal action against [%] STEME: 90%
AVEFA
  Herbicidal action against [%] AVEFA: 90%
ECHCG
  Herbicidal action against [%] ECHCG: 90%
MATIN
  Herbicidal action against [%] MATIN: 90%
SETVI
  Herbicidal action against [%] SETVI: 90%
LOLRI
  Herbicidal action against [%] LOLRI: 90%
PHBPU
  Herbicidal action against [%] PHBPU: 90%
HORMU
  Herbicidal action against [%] HORMU: 90%
ALOMY
  Herbicidal action against [%] ALOMY: 90%
VIOTR
  Herbicidal action against [%] VIOTR: 90%
AMARE
  Herbicidal action against [%] AMARE: 90%
POLCO
  Herbicidal action against [%] POLCO: 90%
VERPE
  Herbicidal action against [%] VERPE: 90%
ABUTH
  Herbicidal action against [%] ABUTH: 90%

## C=CC1(C(=O)NC2C=CC(C(=O)OCCCl)C2)CC(c2cc(F)cc(F)c2)=NO1 (mixture of isomers) [Example I-061]
STEME
  Herbicidal action against [%] STEME: 90%
AVEFA
  Herbicidal action against [%] AVEFA: 100%
ECHCG
  Herbicidal action against [%] ECHCG: 100%
MATIN
  Herbicidal action against [%] MATIN: 80%
SETVI
  Herbicidal action against [%] SETVI: 90%
LOLRI
  Herbicidal action against [%] LOLRI: 90%
PHBPU
  Herbicidal action against [%] PHBPU: 80%
HORMU
  Herbicidal action against [%] HORMU: 90%
ALOMY
  Herbicidal action against [%] ALOMY: 90%
VIOTR
  Herbicidal action against [%] VIOTR: 80%
AMARE
  Herbicidal action against [%] AMARE: 90%
POLCO
  Herbicidal action against [%] POLCO: 90%
VERPE
  Herbicidal action against [%] VERPE: 90%
ABUTH
  Herbicidal action against [%] ABUTH: 80%

## O=C(O)C1C=CC(NC(=O)C2(C3CC3)CC(c3cc(F)cc(F)c3)=NO2)C1 (centres unmarked) [Example I-094]
STEME
  Herbicidal action against [%] STEME: 90%
AVEFA
  Herbicidal action against [%] AVEFA: 90%
ECHCG
  Herbicidal action against [%] ECHCG: 90%
MATIN
  Herbicidal action against [%] MATIN: 80%
SETVI
  Herbicidal action against [%] SETVI: 80%
LOLRI
  Herbicidal action against [%] LOLRI: 90%
PHBPU
  Herbicidal action against [%] PHBPU: 90%
HORMU
  Herbicidal action against [%] HORMU: 90%
ALOMY
  Herbicidal action against [%] ALOMY: 100%
VIOTR
  Herbicidal action against [%] VIOTR: 90%
AMARE
  Herbicidal action against [%] AMARE: 90%
POLCO
  Herbicidal action against [%] POLCO: 90%
VERPE
  Herbicidal action against [%] VERPE: 90%
ABUTH
  Herbicidal action against [%] ABUTH: 90%

## O=C(OCc1ccccc1)C1C=CC(NC(=O)C2(C(F)(F)F)CC(c3cc(F)cc(F)c3)=NO2)C1 (mixture of isomers) [Example I-065]
STEME
  Herbicidal action against [%] STEME: 90%
AVEFA
  Herbicidal action against [%] AVEFA: 90%
ECHCG
  Herbicidal action against [%] ECHCG: 90%
MATIN
  Herbicidal action against [%] MATIN: 80%
SETVI
  Herbicidal action against [%] SETVI: 90%
LOLRI
  Herbicidal action against [%] LOLRI: 90%
PHBPU
  Herbicidal action against [%] PHBPU: 80%
HORMU
  Herbicidal action against [%] HORMU: 90%
ALOMY
  Herbicidal action against [%] ALOMY: 90%
VIOTR
  Herbicidal action against [%] VIOTR: 90%
AMARE
  Herbicidal action against [%] AMARE: 80%
POLCO
  Herbicidal action against [%] POLCO: 90%
VERPE
  Herbicidal action against [%] VERPE: 80%
ABUTH
  Herbicidal action against [%] ABUTH: 80%

## COCCOC(=O)[C@@H]1C=C[C@H](NC(=O)[C@@]2(C)CC(c3cc(F)cc(F)c3)=NO2)C1 [Example I-092]
STEME
  Herbicidal action against [%] STEME: 90%
AVEFA
  Herbicidal action against [%] AVEFA: 90%
ECHCG
  Herbicidal action against [%] ECHCG: 80%
MATIN
  Herbicidal action against [%] MATIN: 90%
SETVI
  Herbicidal action against [%] SETVI: 80%
LOLRI
  Herbicidal action against [%] LOLRI: 90%
PHBPU
  Herbicidal action against [%] PHBPU: 80%
HORMU
  Herbicidal action against [%] HORMU: 100%
ALOMY
  Herbicidal action against [%] ALOMY: 90%
VIOTR
  Herbicidal action against [%] VIOTR: 80%
AMARE
  Herbicidal action against [%] AMARE: 90%
POLCO
  Herbicidal action against [%] POLCO: 80%
VERPE
  Herbicidal action against [%] VERPE: 90%
ABUTH
  Herbicidal action against [%] ABUTH: 90%

## CC(C)OC(=O)C1C=CC(NC(=O)C2(C(F)(F)F)CC(c3cc(F)cc(F)c3)=NO2)C1 (mixture of isomers) [Example I-064]
STEME
  Herbicidal action against [%] STEME: 80%
AVEFA
  Herbicidal action against [%] AVEFA: 100%
ECHCG
  Herbicidal action against [%] ECHCG: 90%
MATIN
  Herbicidal action against [%] MATIN: 90%
SETVI
  Herbicidal action against [%] SETVI: 90%
LOLRI
  Herbicidal action against [%] LOLRI: 100%
PHBPU
  Herbicidal action against [%] PHBPU: 80%
HORMU
  Herbicidal action against [%] HORMU: 90%
ALOMY
  Herbicidal action against [%] ALOMY: 90%
VIOTR
  Herbicidal action against [%] VIOTR: 80%
AMARE
  Herbicidal action against [%] AMARE: 90%
POLCO
  Herbicidal action against [%] POLCO: 90%
VERPE
  Herbicidal action against [%] VERPE: 80%
ABUTH
  Herbicidal action against [%] ABUTH: 80%

## CCOC(=O)C1C=CC(NC(=O)C2(C(F)(F)F)CC(c3cc(F)cc(F)c3)=NO2)C1 (mixture of isomers) [Example I-058]
STEME
  Herbicidal action against [%] STEME: 90%
AVEFA
  Herbicidal action against [%] AVEFA: 100%
ECHCG
  Herbicidal action against [%] ECHCG: 100%
MATIN
  Herbicidal action against [%] MATIN: 90%
SETVI
  Herbicidal action against [%] SETVI: 90%
LOLRI
  Herbicidal action against [%] LOLRI: 90%
PHBPU
  Herbicidal action against [%] PHBPU: 80%
HORMU
  Herbicidal action against [%] HORMU: 100%
ALOMY
  Herbicidal action against [%] ALOMY: 100%
VIOTR
  Herbicidal action against [%] VIOTR: 90%
AMARE
  Herbicidal action against [%] AMARE: 90%
POLCO
  Herbicidal action against [%] POLCO: 90%
VERPE
  Herbicidal action against [%] VERPE: 80%
ABUTH
  Herbicidal action against [%] ABUTH: 90%

## O=C(OCCCl)C1C=CC(NC(=O)C2(C(F)(F)F)CC(c3cc(F)cc(F)c3)=NO2)C1 (mixture of isomers) [Example I-067]
STEME
  Herbicidal action against [%] STEME: 90%
AVEFA
  Herbicidal action against [%] AVEFA: 100%
ECHCG
  Herbicidal action against [%] ECHCG: 90%
MATIN
  Herbicidal action against [%] MATIN: 80%
SETVI
  Herbicidal action against [%] SETVI: 90%
LOLRI
  Herbicidal action against [%] LOLRI: 90%
PHBPU
  Herbicidal action against [%] PHBPU: 80%
HORMU
  Herbicidal action against [%] HORMU: 90%
ALOMY
  Herbicidal action against [%] ALOMY: 90%
VIOTR
  Herbicidal action against [%] VIOTR: 80%
AMARE
  Herbicidal action against [%] AMARE: 80%
POLCO
  Herbicidal action against [%] POLCO: 90%
VERPE
  Herbicidal action against [%] VERPE: 80%
ABUTH
  Herbicidal action against [%] ABUTH: 80%

## O=C(OCC(F)(F)F)C1C=CC(NC(=O)C2(C(F)(F)F)CC(c3cc(F)cc(F)c3)=NO2)C1 (mixture of isomers) [Example I-068]
STEME
  Herbicidal action against [%] STEME: 90%
AVEFA
  Herbicidal action against [%] AVEFA: 100%
ECHCG
  Herbicidal action against [%] ECHCG: 90%
MATIN
  Herbicidal action against [%] MATIN: 90%
SETVI
  Herbicidal action against [%] SETVI: 90%
LOLRI
  Herbicidal action against [%] LOLRI: 90%
PHBPU
  Herbicidal action against [%] PHBPU: 80%
HORMU
  Herbicidal action against [%] HORMU: 90%
ALOMY
  Herbicidal action against [%] ALOMY: 90%
VIOTR
  Herbicidal action against [%] VIOTR: 90%
AMARE
  Herbicidal action against [%] AMARE: 80%
POLCO
  Herbicidal action against [%] POLCO: 90%
VERPE
  Herbicidal action against [%] VERPE: 80%
ABUTH
  Herbicidal action against [%] ABUTH: 90%

## COC(=O)[C@H]1C=C[C@H](NC(=O)[C@@]2(C(F)(F)F)CC(c3cc(F)cc(F)c3)=NO2)C1 [Example I-062]
STEME
  Herbicidal action against [%] STEME: 80%
AVEFA
  Herbicidal action against [%] AVEFA: 100%
ECHCG
  Herbicidal action against [%] ECHCG: 90%
MATIN
  Herbicidal action against [%] MATIN: 80%
SETVI
  Herbicidal action against [%] SETVI: 80%
LOLRI
  Herbicidal action against [%] LOLRI: 90%
PHBPU
  Herbicidal action against [%] PHBPU: 80%
HORMU
  Herbicidal action against [%] HORMU: 100%
ALOMY
  Herbicidal action against [%] ALOMY: 100%
VIOTR
  Herbicidal action against [%] VIOTR: 80%
AMARE
  Herbicidal action against [%] AMARE: 80%
POLCO
  Herbicidal action against [%] POLCO: 80%
VERPE
  Herbicidal action against [%] VERPE: 90%
ABUTH
  Herbicidal action against [%] ABUTH: 80%
